Data: ChEMBL document CHEMBL1201861, “Genomics of Drug Sensitity in Cancer screening data, Wellcome Trust Sanger Institute”

Key:
Assay type in all cases: functional, cell-based
CAL-148 = test: cells; conditions: Homo sapiens
Description: SANGER: Inhibition of human CAL-148 cell growth in a cell viability assay.

NCI-H345 = test: cells; conditions: Homo sapiens;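 further: growth inhibition of NCI-H345 cells measured with a cell viability assay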
Description: SANGER: Inhibition of human NCI-H345 cell growth in a cell viability assay.

T47D = test: cells; conditions: Homo sapiens;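 further: growth inhibition of human T47D cells, measured with a cell viability assay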
Description: SANGER: Inhibition of human T47D cell growth in a cell viability assay.

GAMG = test: cells; conditions: Homo sapiens;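 further: cell growth inhibition measured by a viability assay in the GAMG human cell line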
Description: SANGER: Inhibition of human GAMG cell growth in a cell viability assay.

NCI-H2141 = test: cells; conditions: Homo sapiens;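 further: growth inhibition of human NCI-H2141 cells, read out with a cell viability assay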
Description: SANGER: Inhibition of human NCI-H2141 cell growth in a cell viability assay.

MDA-MB-231 = test: cells; conditions: Homo sapiens
Description: SANGER: Inhibition of human MDA-MB-231 cell growth in a cell viability assay.

Calu-3 = test: cells; conditions: Homo sapiens;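 further: growth inhibition of human Calu-3 cells, determined with a cell viability assay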
Description: SANGER: Inhibition of human Calu-3 cell growth in a cell viability assay.

KU-19-19 = test: cells; conditions: Homo sapiens
Description: SANGER: Inhibition of human KU-19-19 cell growth in a cell viability assay.

NCI-H661 = test: cells; conditions: Homo sapiens;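 further: cell viability assay read-out, IC50 being the concentration that inhibits growth of the cells by half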
Description: SANGER: Inhibition of human NCI-H661 cell growth in a cell viability assay.

YAPC = test: cells; conditions: Homo sapiens;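 further: growth inhibition of YAPC cells, measured with a cell viability assay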
Description: SANGER: Inhibition of human YAPC cell growth in a cell viability assay.

H4 = test: cells; conditions: Homo sapiens
Description: SANGER: Inhibition of human H4 cell growth in a cell viability assay.

UACC-62 = test: cells; conditions: Homo sapiens;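 further: growth inhibition of human UACC-62 cells, read out by a cell viability assay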
Description: SANGER: Inhibition of human UACC-62 cell growth in a cell viability assay.

CESS = test: SANGER: Inhibition of human CESS cell growth in a cell viability assay.
LP-1 = test: cells; conditions: Homo sapiens;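 further: growth inhibition of human LP-1 cells, with the read-out taken from a cell viability assay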
Description: SANGER: Inhibition of human LP-1 cell growth in a cell viability assay.

NCI-H716 = test: cells; conditions: Homo sapiens;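 further: growth inhibition of human NCI-H716 cells, measured by a cell viability assay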
Description: SANGER: Inhibition of human NCI-H716 cell growth in a cell viability assay.

SNU-16 = test: cells; conditions: Homo sapiens;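 further: growth inhibition of human SNU-16 cells, determined with a cell viability readout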
Description: SANGER: Inhibition of human NCI-SNU-16 cell growth in a cell viability assay.

NCI-H1623 = test: cells; conditions: Homo sapiens;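 further: cell viability assay used as the read-out for growth inhibition of NCI-H1623 cells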
Description: SANGER: Inhibition of human NCI-H1623 cell growth in a cell viability assay.

MDA-MB-134-VI = test: cells; conditions: Homo sapiens
Description: SANGER: Inhibition of human MDA-MB-134-VI cell growth in a cell viability assay.

CAL-51 = test: cells; conditions: Homo sapiens;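 further: human CAL-51 cell line, growth inhibition read out via a cell viability assay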
Description: SANGER: Inhibition of human CAL-51 cell growth in a cell viability assay.

NCI-H1437 = test: cells; conditions: Homo sapiens;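 further: growth inhibition of human NCI-H1437 cells, read out by a cell viability assay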
Description: SANGER: Inhibition of human NCI-H1437 cell growth in a cell viability assay.

KYSE-510 = test: cells; conditions: Homo sapiens;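 further: cell viability readout used to measure how strongly growth of the cell line is suppressed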
Description: SANGER: Inhibition of human KYSE-510 cell growth in a cell viability assay.

AN3-CA = test: cells; conditions: Homo sapiens;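 further: growth inhibition of human AN3-CA cells measured by a cell viability assay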
Description: SANGER: Inhibition of human AN3-CA cell growth in a cell viability assay.

PC-3 = test: cells; conditions: Homo sapiens;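 further: cell viability assay measuring growth inhibition of PC-3 cells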
Description: SANGER: Inhibition of human PC-3 cell growth in a cell viability assay.

ECC4 = test: cells; conditions: Homo sapiens;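 further: growth inhibition of ECC4 cells, read out with a cell viability assay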
Description: SANGER: Inhibition of human ECC4 cell growth in a cell viability assay.

NCI-H292 = test: cells; conditions: Homo sapiens;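 further: growth inhibition of NCI-H292 cells, read out with a cell viability assay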
Description: SANGER: Inhibition of human NCI-H292 cell growth in a cell viability assay.

SK-MM-2 = test: cells; conditions: Homo sapiens;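 further: growth inhibition of human SK-MM-2 cells, read out with a cell viability assay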
Description: SANGER: Inhibition of human SK-MM-2 cell growth in a cell viability assay.

J82 = test: cells; conditions: Homo sapiens;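 further: growth inhibition of J82 cells, read out with a cell viability assay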
Description: SANGER: Inhibition of human J82 cell growth in a cell viability assay.

COLO-679 = test: cells; conditions: Homo sapiens
Description: SANGER: Inhibition of human COLO-679 cell growth in a cell viability assay.

NCI-H520 = test: cells; conditions: Homo sapiens;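 further: growth inhibition of NCI-H520 cells, measured by a cell viability assay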
Description: SANGER: Inhibition of human NCI-H520 cell growth in a cell viability assay.

DMS-153 = test: cells; conditions: Homo sapiens
Description: SANGER: Inhibition of human DMS-153 cell growth in a cell viability assay.

RMG-I = test: cells; conditions: Homo sapiens;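 further: growth inhibition of human RMG-I cells, read out with a cell viability assay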
Description: SANGER: Inhibition of human RMG-I cell growth in a cell viability assay.

G-361 = test: cells; conditions: Homo sapiens
ASPC1 = test: cells; conditions: Homo sapiens;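 further: growth inhibition of AsPC-1 cells, read out with a cell viability assay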
Description: SANGER: Inhibition of human AsPC-1 cell growth in a cell viability assay.

PC-14 = test: cells; conditions: Homo sapiens;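 further: cell viability assay measuring inhibition of PC-14 cell growth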
Description: SANGER: Inhibition of human PC-14 cell growth in a cell viability assay.

RCM-1 = test: cells; conditions: Homo sapiens;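 further: growth inhibition of the RCM-1 line, determined with a cell viability readout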
Description: SANGER: Inhibition of human RCM-1 cell growth in a cell viability assay.

A204 = test: cells; conditions: Homo sapiens;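 further: growth inhibition of human A204 cells, read out with a cell viability assay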
Description: SANGER: Inhibition of human A204 cell growth in a cell viability assay.

RO82-W-1 = test: cells; conditions: Homo sapiens;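 further: growth inhibition of human RO82-W-1 cells, measured with a cell viability assay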
Description: SANGER: Inhibition of human RO82-W-1 cell growth in a cell viability assay.

OE33 = test: cells; conditions: Homo sapiens;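 further: growth inhibition of human OE33 cells, measured by a cell viability assay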
Description: SANGER: Inhibition of human OE33 cell growth in a cell viability assay.

RPMI 8402 = test: SANGER: Inhibition of human RPMI-8402 cell growth in a cell viability assay.
BHY = test: cells; conditions: Homo sapiens;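 further: cell growth inhibition read out by a viability assay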
Description: SANGER: Inhibition of human BHY cell growth in a cell viability assay.

MKN-7 = test: cells; conditions: Homo sapiens;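 further: growth inhibition of MKN-7 cells, read out with a cell viability assay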
Description: SANGER: Inhibition of human MKN7 cell growth in a cell viability assay.

MDA-MB-453 = test: cells; conditions: Homo sapiens
Description: SANGER: Inhibition of human MDA-MB-453 cell growth in a cell viability assay.

SK-OV-3 = test: cells; conditions: Homo sapiens;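 further: growth inhibition of SK-OV-3 human cells, read out with a cell viability assay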
Description: SANGER: Inhibition of human SK-OV-3 cell growth in a cell viability assay.

NCI-H2081 = test: cells; conditions: Homo sapiens;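 further: growth inhibition of human NCI-H2081 cells, read out with a cell viability assay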
Description: SANGER: Inhibition of human NCI-H2081 cell growth in a cell viability assay.

KYSE-150 cell line = test: cells; conditions: Homo sapiens;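 further: growth inhibition of human KYSE-150 cells, read out with a cell viability assay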
Description: SANGER: Inhibition of human KYSE-150 cell growth in a cell viability assay.

Daudi = test: cells; conditions: Homo sapiens;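 further: growth inhibition of Daudi cells, read out by a viability assay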
Description: SANGER: Inhibition of human Daudi cell growth in a cell viability assay.

HCC1806 = test: cells; conditions: Homo sapiens;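 further: growth inhibition of the cancer cell line, determined with a cell viability assay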
Description: SANGER: Inhibition of human HCC1806 cell growth in a cell viability assay.

NB12 = test: cells; conditions: Homo sapiens;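 further: growth inhibition of human NB12 cells, read out by a cell viability assay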
Description: SANGER: Inhibition of human NB12 cell growth in a cell viability assay.

HO-1-N-1 = test: cells; conditions: Homo sapiens;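 further: growth inhibition of human HO-1-N-1 cells, read out with a cell viability assay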
Description: SANGER: Inhibition of human HO-1-N-1 cell growth in a cell viability assay.

HCC1937 = test: cells; conditions: Homo sapiens;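 further: growth inhibition measured with a cell viability read-out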
Description: SANGER: Inhibition of human HCC1937 cell growth in a cell viability assay.

SW13 = test: cells; conditions: Homo sapiens;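 further: IC50 is inhibition of SW13 cell growth, read out with a cell viability assay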
Description: SANGER: Inhibition of human SW13 cell growth in a cell viability assay.

CAL-120 = test: cells; conditions: Homo sapiens;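 further: cell growth inhibition, read out as cell viability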
Description: SANGER: Inhibition of human CAL-120 cell growth in a cell viability assay.

CPC-N = test: cells; conditions: Homo sapiens;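 further: growth inhibition of CPC-N cells, with a cell viability assay as the readout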
Description: SANGER: Inhibition of human CPC-N cell growth in a cell viability assay.

LN-405 = test: cells; conditions: Homo sapiens
Description: SANGER: Inhibition of human LN-405 cell growth in a cell viability assay.

NCI-H1693 = test: cells; conditions: Homo sapiens;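 further: growth inhibition of the human cell line, read out with a cell viability assay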
Description: SANGER: Inhibition of human NCI-H1693 cell growth in a cell viability assay.

HGC-27 = test: cells; conditions: Homo sapiens;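 further: growth inhibition of human HGC-27 cells, read out in a cell viability assay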
Description: SANGER: Inhibition of human HGC-27 cell growth in a cell viability assay.

NCI-H727 = test: cells; conditions: Homo sapiens;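 further: growth inhibition of human NCI-H727 cells, read out with a cell viability assay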
Description: SANGER: Inhibition of human NCI-H727 cell growth in a cell viability assay.

SW1463 = test: cells; conditions: Homo sapiens;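 further: growth inhibition of SW1463 cells, determined with a cell viability assay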
Description: SANGER: Inhibition of human SW1463 cell growth in a cell viability assay.

COLO-741 = test: cells; conditions: Homo sapiens
Description: SANGER: Inhibition of human COLO-741 cell growth in a cell viability assay.

LCLC-97TM1 = test: cells; conditions: Homo sapiens;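 further: cell viability assay measuring growth inhibition of human LCLC-97TM1 cells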
Description: SANGER: Inhibition of human LCLC-97TM1 cell growth in a cell viability assay.

NCI-H2452 = test: cells; conditions: Homo sapiens
Description: SANGER: Inhibition of human NCI-H2452 cell growth in a cell viability assay.

RVH-421 = test: cells; conditions: Homo sapiens
Description: SANGER: Inhibition of human RVH-421 cell growth in a cell viability assay.

COLO-680N = test: cells; conditions: Homo sapiens
Description: SANGER: Inhibition of human COLO-680N cell growth in a cell viability assay.

SK-MES-1 = test: cells; conditions: Homo sapiens
Description: SANGER: Inhibition of human SK-MES-1 cell growth in a cell viability assay.

NY = test: cells; conditions: Homo sapiens
Description: SANGER: Inhibition of human NY cell growth in a cell viability assay.

**Q.** How did the IC50 (CAL-148) turn out when `N#C/C(=C1/Nc2ccccc2S1)c1ccnc(NCCc2cccnc2)n1` was run?
**A.** > 8 µM

**Q.** What about the IC50 (NCI-H345) of the same compound?
**A.** > 8 µM

**Q.** What about the IC50 (T47D) of the same compound?
**A.** > 8 µM

**Q.** And the IC50 (GAMG)?
**A.** > 8 µM

**Q.** What about the IC50 (NCI-H2141) of the same compound?
**A.** > 8 µM

**Q.** What about the IC50 (MDA-MB-231) of the same compound?
**A.** > 8 µM

**Q.** What about the IC50 (Calu-3) of the same compound?
**A.** > 8 µM

**Q.** What about the IC50 (KU-19-19) of the same compound?
**A.** > 8 µM

**Q.** What about the IC50 (NCI-H661) of the same compound?
**A.** > 8 µM

**Q.** What about the IC50 (YAPC) of the same compound?
**A.** > 8 µM

**Q.** And the IC50 (H4)?
**A.** > 8 µM

**Q.** And the IC50 (UACC-62)?
**A.** > 8 µM

**Q.** And the IC50 (CESS)?
**A.** > 8 µM

**Q.** And the IC50 (LP-1)?
**A.** > 8 µM

**Q.** What about the IC50 (NCI-H716) of the same compound?
**A.** > 8 µM

**Q.** What about the IC50 (SNU-16) of the same compound?
**A.** > 8 µM

**Q.** What about the IC50 (NCI-H1623) of the same compound?
**A.** > 8 µM

**Q.** And the IC50 (MDA-MB-134-VI)?
**A.** > 8 µM

**Q.** And the IC50 (CAL-51)?
**A.** 5.3 µM

**Q.** What about the IC50 (NCI-H1437) of the same compound?
**A.** 4.15 µM

**Q.** And the IC50 (KYSE-510)?
**A.** > 8 µM

**Q.** What about the IC50 (AN3-CA) of the same compound?
**A.** 2.59 µM

**Q.** What about the IC50 (PC-3) of the same compound?
**A.** > 8 µM

**Q.** What about the IC50 (ECC4) of the same compound?
**A.** > 8 µM

**Q.** And the IC50 (NCI-H292)?
**A.** > 8 µM

**Q.** What about the IC50 (SK-MM-2) of the same compound?
**A.** > 8 µM

**Q.** What about the IC50 (J82) of the same compound?
**A.** 4.34 µM

**Q.** What about the IC50 (COLO-679) of the same compound?
**A.** > 8 µM

**Q.** What about the IC50 (NCI-H520) of the same compound?
**A.** > 8 µM

**Q.** What about the IC50 (DMS-153) of the same compound?
**A.** > 8 µM

**Q.** And the IC50 (RMG-I)?
**A.** > 8 µM

**Q.** What about the IC50 (G-361) of the same compound?
**A.** > 8 µM

**Q.** What about the IC50 (ASPC1) of the same compound?
**A.** > 8 µM

**Q.** What about the IC50 (PC-14) of the same compound?
**A.** 3.62 µM

**Q.** What about the IC50 (RCM-1) of the same compound?
**A.** > 8 µM

**Q.** What about the IC50 (A204) of the same compound?
**A.** 7.34 µM

**Q.** And the IC50 (RO82-W-1)?
**A.** > 8 µM

**Q.** What about the IC50 (OE33) of the same compound?
**A.** > 8 µM

**Q.** What about the IC50 (RPMI 8402) of the same compound?
**A.** > 8 µM

**Q.** And the IC50 (BHY)?
**A.** > 8 µM

**Q.** What about the IC50 (MKN-7) of the same compound?
**A.** > 8 µM

**Q.** What about the IC50 (MDA-MB-453) of the same compound?
**A.** > 8 µM

**Q.** And the IC50 (SK-OV-3)?
**A.** > 8 µM

**Q.** What about the IC50 (NCI-H2081) of the same compound?
**A.** > 8 µM

**Q.** What about the IC50 (KYSE-150 cell line) of the same compound?
**A.** > 8 µM

**Q.** What about the IC50 (Daudi) of the same compound?
**A.** 6.54 µM

**Q.** And the IC50 (HCC1806)?
**A.** 1.53 µM

**Q.** And the IC50 (NB12)?
**A.** > 8 µM

**Q.** And the IC50 (HO-1-N-1)?
**A.** > 8 µM

**Q.** And the IC50 (HCC1937)?
**A.** 3.25 µM

**Q.** What about the IC50 (SW13) of the same compound?
**A.** > 8 µM

**Q.** What about the IC50 (CAL-120) of the same compound?
**A.** > 8 µM

**Q.** And the IC50 (CPC-N)?
**A.** > 8 µM

**Q.** What about the IC50 (LN-405) of the same compound?
**A.** > 8 µM

**Q.** What about the IC50 (NCI-H1693) of the same compound?
**A.** > 8 µM

**Q.** And the IC50 (HGC-27)?
**A.** 6.27 µM

**Q.** And the IC50 (NCI-H727)?
**A.** 0.893 µM

**Q.** And the IC50 (SW1463)?
**A.** > 8 µM

**Q.** And the IC50 (COLO-741)?
**A.** > 8 µM

**Q.** And the IC50 (LCLC-97TM1)?
**A.** 2.12 µM

**Q.** What about the IC50 (NCI-H2452) of the same compound?
**A.** > 8 µM

**Q.** What about the IC50 (RVH-421) of the same compound?
**A.** > 8 µM

**Q.** And the IC50 (COLO-680N)?
**A.** > 8 µM

**Q.** What about the IC50 (SK-MES-1) of the same compound?
**A.** 3.44 µM

**Q.** And the IC50 (NY)?
**A.** 2.76 µM
